Test results as given in ChEMBL document CHEMBL1130146, “Fused pyrrolo[2,3-c]carbazol-6-ones: novel immunostimulants that enhance human interferon-gamma activity” (J Med Chem, 1997).

How the values were obtained:
Protein kinase C (PKC) = test: Inhibition of protein kinase C; type: protein assay, Rattus norvegicus
THP-1 [1] = test: Compound (2 uM) was screened for potentiation of IFN-gamma (0 units/mL)-induced expression of HLA-DR in THP-1 cells; type: functional, Homo sapiens
THP-1 [2] = test: Compound (2 uM) was screened for potentiation of IFN-gamma (100 units/mL)-induced expression of HLA-DR in THP-1 cells; type: functional, Homo sapiens
THP-1 [3] = test: Compound (0 uM) was screened for potentiation of IFN-gamma (0 units/mL)-induced expression of HLA-DR in THP-1 cells; type: functional, Homo sapiens
THP-1 [4] = test: Compound (0 uM) was screened for potentiation of IFN-gamma (100 units/mL)-induced expression of HLA-DR in THP-1 cells; type: functional, Homo sapiens

| SMILES | IC50 (Protein kinase C (PKC)) | Enhancement (THP-1 [1]) | Enhancement (THP-1 [2]) | Enhancement (THP-1 [3]) | Enhancement (THP-1 [4]) |
| --- | --- | --- | --- | --- | --- |
| O=C1Cc2c(c3c4ccccc4[nH]c3c3[nH]c4ccccc4c23)N1 | > 10 µM | 0% | 130% | 0% | 100% |
| O=C1Cc2c(c3c4ccccc4oc3c3[nH]c4ccccc4c23)N1 | > 10 µM | 0% | 108% | 0% | 100% |
| O=C1Cc2c(c3c4ccccc4sc3c3[nH]c4ccccc4c23)N1 | > 10 µM | 0% | 153% | 0% | 100% |
| O=C1Cc2c(c3c(c4[nH]c5ccccc5c24)Cc2ccccc2-3)N1 | > 10 µM | 0% | 160% | 0% | 100% |
